Key:
[1] = tested on: dead bacterial cells of ice nucleation active bacteria (Erwinia ananas); experiment: supercooling activity (droplet freezing on cooled copper plate, temperature at which 50% of droplets are frozen); assay type: physicochemical; conditions: cooling 0.2° C./min; for supercooling activity (difference of freezing point vs buffer with ice nucleation bacteria only): 0.5 mg/mL test sample, 50 mM potassium phosphate buffer pH 7.0, 2 μL droplets; for supercooling activity: 0.1 mg/mL test compound, otherwise as example 1
Procedure: The supercooling activity (or represented as inhibiting activity of ice nucleus formation) is the value measured by the following method. […] A large number of 2 μL droplets of the solution are put on a cupper plate, which is temperature-controllable. Then, the cupper plate is cooled at the rate of 0.2° C./min, the number of frozen droplets are counted macroscopically and the temperature, wherein 50% of droplets are frozen, is defined as freezing point. The supercooling activity is defined as the difference (° C.) between the freezing point of solution containing test sample and ice nucleation active bacteria, and that of solution containing only ice nucleation bacteria and buffer solution.
The supercooling activities of these samples were measured by the following methods. After a buffer solution (50 mM potassium phosphate buffer, pH 7.0) containing dead bacterial cells (Wako pure chemical industries Ltd.,) of ice nucleation active bacteria (Erwinia ananas) mixed with 0.5 mg/mL of a test sample, 2 μL droplets of the solution are put on a cupper plate, which is temperature-controllable. Then, the cupper plate is cooled at the rate of 0.2° C./min, the number of frozen droplets are counted macroscopically and the temperature, wherein 50% of droplets are frozen, is defined as freezing point. The difference (° C.) between the freezing point and that of the buffer solution was measured.

[2] = tested on: pig liver cells; experiment: viability of pig liver cells after supercooled storage (trypan blue staining); assay type: cell-based; conditions: 0.01% by weight in UW liquid with 1% by volume DMSO; −5° C. and −8° C.; 1, 4 and 7 days; FIG. 8
Procedure: The storage liquid was prepared by adding 0.01% by weight of kaempferol-7-glucoside (compound 2 (Cj5)), Extrasynthese Co.) and 1% by volume of DMSO (Wako pure chemical industries Ltd., guaranteed reagent) to a buffer solution (UW liquid, 100 mM lactobionic acid, 25 mM KH2PO4, 5 mM MgSO4, 30 mM raffinose, 2.5 mM adenosine, 3 mM GSH, 1 mM allopurinol, 0.25 mg/mL streptomycin, 10 UI/mL penicillin).
For comparison, a mixed solution (UW liquid) without kaempferol-7-O-glucoside and DMSO was prepared.
The viability of cells was evaluated by trypan blue (GIBCO) staining, when pig liver cells 5×10^6 cells/mL were dipped in 0.5 cc of the above storage liquid, supercooled at −5° C. and at −8° C., and stored for 1, 4 and 7 days.

[3] = tested on: cranberry shoot apexes (buds); experiment: survival of cranberry shoot apexes after vitrification in liquid nitrogen and thawing; conditions: 0.05% by weight in 75% vitrification liquid (75% PVS2); liquid nitrogen overnight, thawed at room temperature; FIG. 9A vs 9B
Procedure: As a vitrification liquid, 75% dilution solution of PVS2 liquid (22.5% by volume glycerol, 11.25% by volume of ethyleneglycol, 11.25% by volume of DMSO, […], the remainder was Murashige & Skoog medium, DUCHEFA BIOCHEMIE BV) supplemented with 0.05% by weight of kaempferol-7-O-glucoside (compound 2, Extrasynthese Co.) was used (hereinafter referred to as “75% vitrification liquid”).
For comparison, a mixed solution without kaempferol-7-O-glucoside was prepared. Shoot apexes (buds) are isolated from cranberry (subcultured in Hokkaido University, Graduate School of Agriculture) and dipped in the above mixed solution at room temperature.
On the other hand, survival of shoot apexes, which were dipped in 75% vitrification liquid containing kaempferol-7-O-glucoside at room temperature for a specified loading time, put into liquid nitrogen, frozen for overnight, and then thawed at room temperature, is shown in frozen batch of FIG. 9A. Similarly, survival of the apexes, which were dipped in a vitrification liquid without kaempferol-7-O-glucoside and frozen, is shown in frozen batch of FIG. 9B.

Row | supercooling activity [1] [°C] | SMILES | supercooling activity (difference of freezing point vs buffer with ice nucleation bacteria only) [1] [°C] | further results
1 | – | O=c1c(O)c(-c2ccc(O)cc2)oc2cc(OC3OC(CO)[C@@H](O)C(O)[C@H]3O)cc(O)c12 (stereo partly drawn) [compound 2, kaempherol-7-O-β-glucoside] | −7.7 | viability of cells after supercooled storage [2]: enables storage of viable animal cells for long-term; survival of shoot apexes after freezing (damage due to freezing) [3]: significantly reduced the damage due to freezing
2 | – | O=c1c(OC2OC(CO)[C@@H](O)C(O)[C@H]2O)c(-c2ccc(O)cc2)oc2cc(O)cc(O)c12 (stereo partly drawn) [compound 4, kaempferol-3-O-β-glucoside] | −2.5 | –
3 | −12.0 | O=c1cc(-c2ccc(O)cc2)oc2cc(O[C@@H]3O[C@H](CO)[C@@H](O)[C@H](O)[C@H]3O)cc(O)c12 [compound 6, apigenin 7-O-β-D-glucopyranoside] | – | –
4 | −1.8 | C[C@@H]1O[C@@H](O[C@H]2[C@H](Oc3cc(O)c4c(=O)cc(-c5ccc(O)cc5)oc4c3)O[C@H](CO)[C@@H](O)[C@@H]2O)[C@H](O)[C@H](O)[C@H]1O [compound 8, apigenin 7-O-β-neohesperidoside] | – | –
5 | −4.9 | O=c1cc(-c2ccc(O[C@@H]3O[C@H](CO)[C@@H](O)[C@H](O)[C@H]3O)cc2)oc2cc(O[C@@H]3O[C@H](CO)[C@@H](O)[C@H](O)[C@H]3O)cc(O)c12 [compound 7, apigenin 4′, 7-di-O-β-D-glucopyranoside] | – | –
6 | – | O=c1c(OC2OC(CO)[C@@H](O)C(O)[C@H]2O)c(-c2ccc(O)c(O)c2)oc2cc(O)cc(O)c12 (stereo partly drawn) [compound 1, quercetin-3-O-β-glucoside] | −1.8 | –
7 | – | COc1c(O)cc(O)c2c(=O)c(OC3OC(CO)[C@@H](O)C(O)[C@H]3O)c(-c3ccc(O)cc3)oc12 (stereo partly drawn) [compound 3, 8-methoxykaempferol-3-O-β-glucoside] | −0.2 | –
8 | −4.5 | O=c1cc(-c2ccccc2)oc2cc(O[C@@H]3O[C@H](CO)[C@@H](O)[C@H](O)[C@H]3O)cc(O)c12 [compound 5, Chrycin-7-O-β-D-glucopyranoside] | – | –

Reference: US20090302265A1, “Supercooling promoting agent” (priority 2006, published 2009)
